Patent publication US12492403B2, “Aptamers and the use thereof in the treatment of cancer” (FUNDACIÓN PARA LA INVESTIGACIÓN BIOMÉDICA DEL HOSPITAL …, priority 2018, dated 2025)

Tested on: orthotopic xenograft of MDA-MB-231 cells
Assay: In vivo efficacy in orthotopic xenograft mouse model
Parameters: species or system nude mice
Procedure: FIGS. 19A-19D. In vivo efficacy of apMNKQ2 in an orthotopic xenograft mouse model of MDA-MB-231 cells. (A) Evolution of the weight of the mouse over days of treatment with apMNKQ2 (FIG. 19A). (B) Relative tumor volume (RTV) over days of treatment (FIG. 19B). (C) Tumor weight after sacrificing the animal (FIG. 19C). (D) Immunohistochemical determination of proliferating cell nuclear antigen (PCNA) levels (FIG. 19D). The analysis of the positive nuclei was performed with the imageJ program. The boxes represent the mean±the maximum and minimum of 5-8 animals (*p<0.05 with respect to the control group).
FIGS. 20A-20D. Activation of apoptosis and expression of EMT markers in tumors from the mice with an orthotopic xenograft of MDA-MB-231 cells of FIG. 19. Immunodetection with specific antibodies by SDS-PAGE 12% of “cleaved” PARP ([…]), a-Spectrin (FIG. 20B) and the anti-apoptotic protein MCL1 (FIG. 20C) in tissue of mice treated with 1.8 mg/Kg of apMNKQ2 or with the vehicle. Expression levels of occludin (epithelial status marker) and FSP1 (mesenchymal marker) in tissue of mice treated with 1.8 mg/kg of apMNKQ2 or with the vehicle using qPCR (FIG. 20D). The values obtained were normalized with respect to β-actin. The boxes represent the mean±the maximum and the minimum of 4-5 animals (*p<0.05, **p<0.01 with respect to the control group).
For transfection in the in vivo model, the in vivo-jetPEI® transfection system (Polyplus, France) was used according to the manufacturer's instructions. The aptamer and jetPEI® reagent were separately diluted in glucose for the subsequent addition of the jetPEI® complex to that of the aptamer, such that the final glucose concentration is 5%. It was added to the cultures or injected into animals according to the assay.
Total RNA was obtained from cells using the NucleoZOL reagent ([…]-NAGEL, Germany) according to the manufacturer's instructions. Obtained RNA purity and integrity analyses were performed using the Experion™ RNA HighSens Analysis Kit chip (BioRad, USA). For the quantitative analysis of the mRNA levels, cDNAs were obtained with the SensiFAST™ cDNA synthesis kit (Bioline, United Kingdom) and real-time PCR was carried out in an IQ5 thermocycler (BioRad, USA) with the FastGene IC Green 2×qPCR Universal Mix kit (NIPPON Genetics, Germany).
In vivo assays were performed with nude mice inoculated with MDA-MB-231 cells and orthotopic tumors were generated. When these tumors reached a volume of 100 mm^3, the mice were randomly distributed into two groups of 9 animals. The treated group (1.8 mg/kg) was intravenously injected with 100 μl of 5% glucose containing 46 μg (5 nmol) of apMNKQ2 and 5.6 μl of jetPEI® transfectant (N/P ratio of 6) three times a week. The control group was injected with the 5% glucose solution containing the same volume of in vivo-jetPEI® reagent and aptamer buffer. As monitoring parameters, the tumor volume, assuming they are ellipsoids, and the weight of the animals were measured. At 18 days, the animals were sacrificed and the tumors were weighed and divided into two fragments, one to be frozen and another for fixing and inclusion in paraffin.
The immunohistochemical determination of the proliferating cell nuclear antigen (PCNA), sections of the paraffinized samples were made and they were then deparaffinized and rehydrated. The antigen was unmasked by incubating the sections in a 10 mM citrate buffer in a pressure cooker at maximum pressure for 2 minutes. After performing two quick washes with distilled water and two 5-minute washes with TBS, the sections were incubated in a blocking solution (3% fetal bovine serum in TBS with 0.05% triton X-100) for 30 minutes at room temperature. The samples were then incubated with the primary antibody PCNA (Santa Cruz Biotechnology, USA) at a dilution of 1:100 at room temperature overnight. […]

[1] = tumors of mice treated with 1.8 mg/kg vs vehicle

## 5′TGGGGTGGGCGGGCGGGGGTGGGGGTGGT-3′ (DNA, backbone and methylation of C not given here; further chemistry not fully specified) [apMNKQ2]
1.8 mg/kg intravenously three times a week, 18 days
  decrease of cell proliferation in the tumor (PCNA immunohistochemistry) with respect to the control group: 50%
1.8 mg/kg intravenously three times a week, 18 days, not statistically significant
  decrease of the weight of the tumor after sacrificing the animals: 27%
1.8 mg/kg intravenously with jetPEI three times a week, 18 days
  weight of the mice: no changes
Intravenous with jetPEI three times a week, statistically significant at 7 and 18 days of treatment
  relative size of the tumor (relative tumor volume) vs control group: smaller
Tumors of mice treated with 1.8 mg/Kg vs vehicle
  apoptosis in tumors (cleaved PARP, α-spectrin, MCL1 immunodetection): apoptotic effect
[1]
  mRNA levels of the mesenchymal marker FSP1 in tumors (qPCR): decrease (although not significant)
  occludin epithelial marker expression in tumors (qPCR): increases significantly
